Results from publication PMC7300003, “Alternative catalytic residues in the active site of Esco acetyltransferases” (Scientific Reports, 2020).

What was measured:
HsESCO1 = target: T1, HsESCO1 (Homo sapiens, UniProt Q5FWF5); test: SMC3 acetylation time course, anti-acetyl-Smc3 immunoblot; assay type: biochemical; conditions: 10 µM AcCoA; acceptor human trimeric or tetrameric cohesin (SMC3 K105/K106); ATP, plasmid DNA, 1 mM MgCl2, pH 7.5, 37 °C
T1 construct: gene ESCO1; full-length, N-terminal His-tag, Sf9 insect cells
T1 sequence (Q5FWF5 1-840): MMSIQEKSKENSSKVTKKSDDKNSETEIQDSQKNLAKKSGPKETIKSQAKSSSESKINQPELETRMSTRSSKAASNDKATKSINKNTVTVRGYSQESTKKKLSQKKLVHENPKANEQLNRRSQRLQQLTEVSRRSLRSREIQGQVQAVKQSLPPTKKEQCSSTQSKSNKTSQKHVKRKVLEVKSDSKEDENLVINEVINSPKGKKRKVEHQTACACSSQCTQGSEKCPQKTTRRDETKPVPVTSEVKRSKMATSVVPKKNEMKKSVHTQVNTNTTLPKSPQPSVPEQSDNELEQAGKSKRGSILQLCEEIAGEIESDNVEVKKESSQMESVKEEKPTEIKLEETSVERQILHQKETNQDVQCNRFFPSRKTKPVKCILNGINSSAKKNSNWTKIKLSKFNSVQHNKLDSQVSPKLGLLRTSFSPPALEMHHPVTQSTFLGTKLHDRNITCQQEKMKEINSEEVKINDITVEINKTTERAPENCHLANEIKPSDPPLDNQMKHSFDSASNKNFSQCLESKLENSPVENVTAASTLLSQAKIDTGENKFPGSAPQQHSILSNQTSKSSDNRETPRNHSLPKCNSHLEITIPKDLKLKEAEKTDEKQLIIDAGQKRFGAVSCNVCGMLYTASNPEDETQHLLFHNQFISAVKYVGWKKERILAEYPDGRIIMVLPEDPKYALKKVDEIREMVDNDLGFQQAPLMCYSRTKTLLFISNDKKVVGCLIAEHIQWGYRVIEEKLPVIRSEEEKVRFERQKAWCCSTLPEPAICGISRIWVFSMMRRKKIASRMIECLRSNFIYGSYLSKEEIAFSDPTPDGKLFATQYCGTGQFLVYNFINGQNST

MmEsco2^368–592 = target: T2, MmEsco2^368–592 (Mus musculus, UniProt Q8CIB9); test: X-ray crystallography, […] Å (zinc SAD); assay type: binding; conditions: natively bound (co-purified) CoA; active-site groove; pH 8 crystallisation
T2 construct: gene Esco2; residues 368-592 (C2H2 zinc finger and acetyltransferase domain), C-terminal His-tag, Hi5 insect cells
T2 sequence (Q8CIB9 368-592): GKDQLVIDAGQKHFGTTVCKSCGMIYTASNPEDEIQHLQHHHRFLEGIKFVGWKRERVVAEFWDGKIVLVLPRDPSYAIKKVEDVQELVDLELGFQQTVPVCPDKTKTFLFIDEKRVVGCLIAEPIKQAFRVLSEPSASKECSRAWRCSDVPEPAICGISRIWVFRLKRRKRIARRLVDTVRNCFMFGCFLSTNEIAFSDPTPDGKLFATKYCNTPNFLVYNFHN

Row | SMILES | SMC3 acetylation time course, anti-acetyl-Smc3 immunoblot (HsESCO1) | X-ray crystallography, 1.8 Å (zinc SAD) (MmEsco2^368–592)
1 | CC(=O)SCCNC(=O)CCNC(=O)[C@H](O)C(C)(C)COP(=O)(O)OP(=O)(O)OC[C@H]1O[C@@H](n2cnc3c(N)ncnc32)[C@H](O)[C@@H]1OP(=O)(O)O [AcCoA] | The purified tetrameric cohesin complex was incubated with HsESCO1 and AcCoA | –
2 | CC(C)(COP(=O)(O)OP(=O)(O)OC[C@H]1O[C@@H](n2cnc3c(N)ncnc32)[C@H](O)[C@@H]1OP(=O)(O)O)[C@@H](O)C(=O)NCCC(=O)NCCS [CoA] | – | The CoA cofactor is natively present in a complex with MmEsco2 in a groove
